Results: patent EP0528172A1, “(2-Alkyl-3-pyridyl)methylpiperazine derivatives as PAF antagonists” (J. URIACH & CIA. S.A., priority 1991, dated 1993)
Like-named read-outs stand apart in the source and are kept apart here.

Key:
[1] = system: hypotension induced by PAF; assay: Inhibition of the hypotensive effect induced by PAF in normotense rats; format: in vivo, Sprage Dawley rats; conditions: for ED50: Rattus norvegicus, iv, read-out: ID₅₀
Method: Inhibition of the hypotensive effect induced by PAF in normotense rats.
Male Sprage Dawley rats, of 180-220 g of weight, anesthetized with sodium pentobarbital (50 mg/Kg, i.p. 1 mL/100 g) have been used. In order to measure the average arterial pressure, a polyethylene catheter is introduced into the carotid artery. The arterial pressure is recorded with the help of a transducer connected with a R611 Beckman polygraph. The tested compounds are administered through the femoral vein 3 min. before the injection of PAF (0.5 mcg/Kg, i.v.) . The inhibition of the hypotension induced by PAF of the different compounds is expressed as ID₅₀, that is to say, the amount of compound by weight of animal (dose) needed to inhibit the hypotension induced by PAF in a 50%.

[2] = system: platelet aggregation induced by PAF; assay: Inhibition of platelet aggregation induced by PAF (platelet rich plasma, Born nephelometric technique); format: cell-based, New Zealand albino rabbits; conditions: rabbit platelet rich plasma, PAF C₁₈ 16 nM final, concentration needed to inhibit platelet aggregation in a 50%, read-out: IC₅₀
Method: Inhibition of platelet aggregation induced by PAF.
The blood is obtained by cardiac puncture of male New Zealand albino rabbits (between 2 and 2.5 Kg of weight) and coagulation is prevented by adding 1 part of 3.16% sodium citrate dihydrate in 9 parts of blood. The platelet rich plasma (PRP) is prepared by blood centrifugation at 250xg for 10 min. at 4°C and it is diluted with platelet poor plasma (PPP) obtained by additional centrifugation at 3000xg for 10 min. The amount of platelets is adjusted to […]. The platelet aggregation induced by PAF (C₁₈, prepared in our laboratory) (16 nM, final) is determined by the Born nephelometric technique (J. Physiol., 1962, 162, 67) using an aggregometer Chrono-log 500. The activities of the inhibitors are expressed as IC₅₀ values, that is to say the concentration of the drug needed to inhibit the platelet aggregation in a 50%.

mortality induced by PAF = assay: Mortality induced by PAF in mice (p.o.); format: in vivo, Swiss mice; conditions: Mus musculus, oral administration 1 h before 100 mcg/kg PAF-C₁₈ + 1 mg/kg propanolol i.v., examined 2 h after PAF, dose inhibiting mortality in a 50%, read-out: ID₅₀
Method: Mortality induced by PAF in mice (p.o.).
This test was performed according to the procedure described by Young et al. (Prostaglandins, 1985, 30, 545-551). Groups of 10 Swiss mice weighing from 22 to 26 g were used. 100 mcg/kg of PAF-C₁₈ and 1 mg/kg of propanolol were administered through a lateral tail vein 1 h after the oral administration of the compounds to be tested (20 mL/kg). Animals were examined 2 h after the injection of PAF. The percentage of the inhibition of the mortality induced by PAF was determined for all the tested compounds in comparison with the control group. The results are expressed as ID₅₀ values, that is to say, the amount of compound by weight of animal (dose) needed to inhibit the mortality induced by PAF in a 50%.

[3] = anesthetized male rats, compound via femoral vein 3 min before PAF (0.5 mcg/Kg, i.v.), dose inhibiting PAF hypotension in a 50%

SMILES	ED50 [1, 3] [mg/kg]	IC50 ([2]; Oryctolagus cuniculus) [µM]	ED50 (mortality induced by PAF) [mg/kg]	ED50 [1] [mg/kg]	ID₅₀ [1, 3] [mg/Kg i.v.]	IC50 [2] [µM]
Cc1ncccc1C(C#N)N1CCN(C(=O)CC(c2ccccc2)c2ccccc2)CC1.Cl.Cl (stereo not drawn) [Compound 1, 1-(3,3-Diphenylpropionyl)-4-[(2-methyl-3-pyridyl)cyanomethyl]piperazine, dihydrochloride]	0.015	0.018				
Cc1ncccc1C(C#N)N1CCN(C(=O)CC(O)(c2ccccc2)c2ccccc2)CC1 (stereo not drawn) [Compound 4, 1-(3,3-Diphenyl-3-hydroxypropionyl)-4-[(2-methyl-3-pyridyl)cyanomethyl]piperazine]	0.039	0.017	0.69			
Cc1ncccc1C(C#N)N1CCN(C(=O)C=C(c2ccccc2)c2ccccc2)CC1 (stereo not drawn) [Compound 5, 1-(3,3-Diphenylpropenoyl)-4-[(2-methyl-3-pyridyl)cyanomethyl]piperazine]	0.038	0.026				
Cc1ncccc1C(C#N)N1CCN(C(=O)CC(C)(O)c2ccccc2)CC1 (stereo not drawn) [Compound 9, 1-(3-Phenyl-3-hydroxybutanoyl)-4-[(2-methyl-3-pyridyl)cyanomethyl]piperazine]		0.036				
Cc1ncccc1C(C#N)N1CCN(C(=O)CC(O)(c2ccccc2)C(F)(F)F)CC1 (stereo not drawn) [Compound 11, 1-(3-Phenyl-3-hydroxy-3-(trifluoromethyl)propionyl)-4-[(2-methyl-3-pyridyl)cyanomethyl]piperazine]	0.013	0.014	0.44			
Cc1ncccc1C(C#N)N1CCN(C(=O)CC(NCc2ccccc2)c2ccccc2)CC1 (stereo not drawn) [Compound 15, 1-[3-(N-Benzylamino)-3-phenylpropionyl]-4-[(2-methyl-3-pyridyl)cyanomethyl]piperazine]	0.035	0.0091	1.2			
Cc1ncccc1C(C#N)N1CCN(C(=O)CC(NC(=O)c2ccccc2)c2ccccc2)CC1 (stereo not drawn) [Compound 16, 1-[3-(N-Benzoylamino)-3-phenylpropionyl]-4-[(2-methyl-3-pyridyl)cyanomethyl]piperazine]	0.056	0.0091				
CC(=O)NC(CC(=O)N1CCN(C(C#N)c2cccnc2C)CC1)c1ccccc1 (stereo not drawn) [Compound 17, 1-[3-(N-acetylamino)-3-phenylpropionyl]-4-[(2-methyl-3-pyridyl)cyanomethyl]piperazine]	0.035	0.038	0.09			
Cc1ncccc1C(C#N)N1CCN(C(=O)CCC(c2ccccc2)c2ccccc2)CC1 (stereo not drawn) [Compound 18, 1-(4,4-Diphenylbutanoyl)-4-[(2-methyl-3-pyridyl)cyanomethyl]piperazine]	0.028	0.08				
Cc1ncccc1C(C#N)N1CCN(C(=O)CNC(c2ccccc2)c2ccccc2)CC1 (stereo not drawn) [Compound 22, 1-[N-(Diphenylmethyl)aminoacetyl]-4-[(2-methyl-3-pyridyl)cyanomethyl]piperazine]	0.021	0.085	0.3			
Cc1ncccc1C(C#N)N1CCN(C(=O)[C@H](C)NC(c2ccccc2)c2ccccc2)CC1 (stereo partly drawn) [Compound 28, 1-[(S)-2-(N-(Diphenylmethyl)amino)propionyl]-4-[(2-methyl-3-pyridyl)cyanomethyl]piperazine]	0.025	0.013	1.6			
Cc1ncccc1C(C#N)N1CCN(C(=O)CCNC(c2ccccc2)c2ccccc2)CC1 (stereo not drawn) [Compound 34, 1-[3-(N-(Diphenylmethyl)amino)propionyl]-4-[(2-methyl-3-pyridyl)cyanomethyl]piperazine]	0.044	0.11	0.62			
Cc1ncccc1C(C#N)N1CCN(C(=O)COC(c2ccccc2)c2ccccc2)CC1 (stereo not drawn) [Compound 36, 1-[(Diphenylmethoxy)acetyl]-4-[(2-methyl-3-pyridyl)cyanomethyl]piperazine]	0.048	0.042				
COC(=O)NC(CC(=O)N1CCN(C(C#N)c2cccnc2C)CC1)c1ccccc1 (stereo not drawn) [Compound 41, 1-[3-(N-(Methoxycarbonyl)amino)-3-phenylpropionyl]-4-[(2-methyl-3-pyridyl)cyanomethyl]piperazine]	0.015	0.041	0.044			
CCOC(=O)NC(CC(=O)N1CCN(C(C#N)c2cccnc2C)CC1)c1ccccc1 (stereo not drawn) [Compound 42, 1-[3-(N-(Ethoxycarbonyl)amino)-3-phenylpropionyl]-4-[(2-methyl-3-pyridyl)cyanomethyl]piperazine]	0.025	0.014	0.23			
Cc1ncccc1C(C#N)N1CCN(C(=O)CC(NC(=O)Oc2ccccc2)c2ccccc2)CC1 (stereo not drawn) [Compound 44, 1-[3-(N-(Phenoxycarbonyl)amino)-3-phenylpropionyl]-4-[(2-methyl-3-pyridyl)cyanomethyl]piperazine]		0.016		0.036		
Cc1ncccc1C(C#N)N1CCN(C(=O)CC(NC(=O)c2cccnc2)c2ccccc2)CC1 (stereo not drawn) [Compound 60, 1-[3-(N-(3-pyridylcarbonyl)amino)-3-phenylpropionyl]-4-[(2-methyl-3-pyridyl)cyanomethyl]piperazine]	0.029	0.0089	0.41			
Cc1ncccc1C(C#N)N1CCN(C(=O)CC(c2ccccc2)N2CCCC2=O)CC1 (stereo not drawn) [Compound 66, 1-[3-(2-oxo-1-pyrrolidinyl)-3-phenylpropionyl]-4-[(2-methyl-3-pyridyl)cyanomethyl]piperazine]	0.026	0.029	0.13			
Cc1ncccc1C(C#N)N1CCN(C(=O)CC(c2ccccc2)N2CCOC2=O)CC1 (stereo not drawn) [Compound 68, 1-[3-(2-oxo-3-oxazolidinyl)-3-phenylpropionyl]-4-[(2-methyl-3-pyridyl)cyanomethyl]piperazine]	0.029	0.063	0.3 to 1			
Cc1ncccc1C(C#N)N1CCN(C(=O)CC(Nc2ccccc2)c2ccccc2)CC1 (stereo not drawn) [Compound 74, 1-[3-(N-phenylamino)-3-phenylpropionyl]-4-[(2-methyl-3-pyridyl)cyanomethyl]piperazine]	0.042	0.028	0.27			
CC(=O)N(O)C(CC(=O)N1CCN(C(C#N)c2cccnc2C)CC1)c1ccccc1 (stereo not drawn) [Compound 75, 1-[3-(N-acetyl-N-hydroxyamino)-3-phenylpropionyl]-4-[(2-methyl-3-pyridyl)cyanomethyl]piperazine]	0.027	0.062	0.061			
Cc1ncccc1C(C#N)N1CCN(C(=O)CC(c2ccccc2)N(O)C(N)=O)CC1 (stereo not drawn) [Compound 76, 1-[3-(N-carbamoyl-N-hydroxyamino)-3-phenylpropionyl]-4-[(2-methyl-3-pyridyl)cyanomethyl]piperazine]		0.069				
CNC(=O)N(O)C(CC(=O)N1CCN(C(C#N)c2cccnc2C)CC1)c1ccccc1 (stereo not drawn) [Compound 77, 1-[3-(N-methylcarbamoyl-N-hydroxyamino)-3-phenylpropionyl]-4-[(2-methyl-3-pyridyl)cyanomethyl]piperazine]	0.045	3				
Cc1ncccc1C(C#N)N1CCN(C(=O)CC(NC(=O)N(C)O)c2ccccc2)CC1 (stereo not drawn) [Compound 78, 1-[3-(N-(N'-hydroxy-N'-methylcarbamoyl)amino)-3-phenylpropionyl]-4-[(2-methyl-3-pyridyl)cyanomethyl]piperazine]					0.055	0.082
